Assay results as given in patent US20060019971A1, “Treatment of cardiovascular disease with inhibitors of p38 kinase” (priority 2003, published 2006).
“Also recorded” adds a separate entry of the source.

Assays:
Type in all cases: cell-based, human
[1] = system: COX-2 mRNA in HPBMCs; assay: COX-2 gene expression in HPBMCs, real-time PCR; conditions: 6 hours
Protocol: (§1) 5×10^6 HPBMCs were plated in 6-well. After 1 hour medium was removed and cells were treated with vehicle or 1 μM p38 inhibitor in RPMI 1640 medium. After 1 hour cells were stimulated with 10% FCS only or 10 μg/ml CRP plus 10% FCS. After 6 hours RNA was extracted from the cells and COX-2 gene expression level was determined by real-time PCR as described in the Experimental section.
Cryopreserved human peripheral blood monocytes (HPBMCs, from Biowitker, Walkersvill, Md.) were thawed and washed twice in RPMI 1640. Cells were plated in tissue culture plates and incubated in 5% CO2 at 37 C. After 1 hr media were removed and cells were treated with various treatments. After 2 to 20 hours conditioned media and/or cell lysates were collected for the analyses of secreted cytokines, protein or mRNA expression. […]
(§2) RNA was extracted from the cells using Qiagen RNA extraction kit according to the manufacturer's instruction. The expression of pro-inflammatory genes IL-1β, IL-6, IL-8, TNFα, COX-2, ET-1, TF were assessed by real-time PCR. […]
(§3) Real-time RT-PCR was performed in a two-step manner. cDNA synthesis and real-time detection were carried out in a PTC-100™ Thermal Cycler (MJ Research Inc, Waltham, Mass.) and an ABI Prism™ 7700 Sequence Detection System (Applied Biosystems, Foster City, Calif.), respectively. […] Relative quantitation of gene expression was performed using the relative standard curve method. […]

[2] = system: IL-8 secretion from HPBMCs; assay: IL-8 secretion from HPBMCs, ELISA; conditions: 1 μM SD pre-treatment, all the conditions (control, CRP, FCS, CRP plus FCS), 6 hours
Protocol: 8×10^5 HPBMCs were plated in 96-well. After 1 hour medium was removed and cells were incubated with or without 10 μg/ml of purified human CRP in serum-free RPMI 1640. In parallel experiments cells were treated with 10% FCS together with the CRP treatment. For the p38 antagonism, p38 inhibitor was added to a final concentration of 1 μM in the parallel treatment. After 6 hours conditioned medium were collected and IL-6 and IL-8 levels were determined by ELISA. […] 5×10^6 HPBMCs were plated in 6-well. After 1 hour medium was removed and cells were treated with vehicle or 1 μM p38 inhibitor in RPMI 1640 medium. After 1 hour cells were stimulated with 10% FCS only or 10 μg/ml CRP plus 10% FCS. After 2 hours RNA was extracted from the cells and IL-8 expression level was determined by real-time PCR as described in the Experimental section.
Cryopreserved human peripheral blood monocytes (HPBMCs, from Biowitker, Walkersvill, Md.) were thawed and washed twice in RPMI 1640. Cells were plated in tissue culture plates and incubated in 5% CO2 at 37 C. […]
Conditioned media from the treated cells were collected (6 to 20 hrs), and the level of secreted interleukin 6 (IL-6), interleukin 1 beta (IL-1 β), tumor necrosis factor alpha (TNFα), and interleukin 8 (IL-8) was determined by ELISA according to the manufacturer's instruction (Biosource International, Camarillo, Calif.). […]

[3] = system: ET-1 mRNA in HPBMCs; assay: ET-1 gene expression in HPBMCs, real-time PCR; conditions: 6 hours
Protocol: as §1, with “P38 INHIBITOR” for “p38 inhibitor”, “ET-1” for “COX-2”
Cryopreserved human peripheral blood monocytes (HPBMCs, from Biowitker, Walkersvill, Md.) were thawed and washed twice in RPMI 1640. Cells were plated in tissue culture plates and incubated in 5% CO2 at 37 C. After 1 hr media were removed and cells were treated with various treatments. After 2 to 20 hours conditioned media and/or cell lysates were collected for the analyses of secreted cytokines, protein or mRNA expression. 10 μg/ml of purified human CRP (Calbiochem, San Diego, Calif.) was used in most of the treatments. In some experiments fetal calf serum (FCS from ATCC) was added to a final concentration of 10% together with CRP. In the examples provided herein, including those assessing the effects of p38 antagonism, cells were pre-treated with SD, a p38 small molecule inhibitor (Compound 162 in Table A) for 1 hour prior to CRP treatment as described above. In a parallel series of experiments, the effect of vehicle (DMSO) was tested. For TaqMan analyses of various gene expression cells were lysed in ice-cold RLT lysis buffer (Qiagen, Valencia, Calif.) and the lysates were kept in −80° C. until the analyses. […]
as §2, §3

[4] = system: TNFα mRNA in HPBMCs; assay: TNFα gene expression in HPBMCs, real-time PCR; conditions: 2 hours
Protocol: 5×10^6 HPBMCs were plated in 6-well. After 1 hour medium was removed and cells were treated with vehicle or 1μM p38 inhibitor in RPMI 1640 medium. After 1 hour cells were stimulated with 10% FCS only or 10 μg/ml CRP plus 10% FCS. After 6 hours conditioned medium was collected and IL-1b and TNFa levels were determined by ELISA. […] 5×10^6 HPBMCs were plated in 6-well. After I hour medium was removed and cells were treated with vehicle or […] p38 inhibitor in RPMI 1640 medium. After 1 hour cells were stimulated with 10% FCS only or 10 μg/ml CRP plus 10% FCS. After 2 hours RNA was extracted from the cells and TNFa (c) and IL-1b (d) expression levels were determined by real-time PCR as described in the Experimental section. […]
as §2, §3

[5] = 1 μM SD pre-treatment, listed as SD

C[C@@H]1CN(Cc2ccc(F)cc2)[C@@H](C)CN1C(=O)c1cc2c(C(=O)C(=O)N(C)C)c[nH]c2cc1Cl [Compound 162]
inhibition of CRP-invoked COX-2 mRNA expression [1, 5]: almost completely blocked; also recorded: almost completely inhibited
inhibition of FCS induced COX-2 mRNA ([1]; 1 μM SD): completely inhibited
inhibition of IL-8 secretion [2]: almost completely inhibited
inhibition of CRP-invoked ET-1 mRNA expression [3, 5]: almost completely blocked; also recorded: almost completely inhibited
inhibition of FCS induced ET-1 mRNA ([3]; 1 μM SD): completely inhibited
inhibition of CRP augmented TNFα transcription ([4]; 1 μM SD): completely attenuated
FCS induced TNFα transcription, sensitivity to SD treatment ([4]; 10% FCS): sensitive
